Measured values: US9694016B2 (Novartis AG, priority 2013, dated 2017)
pIC50: −log10 of the molar value. Like-named read-outs stand apart in the source and are kept apart here.

Biological target: b-Raf (V600E) (Homo sapiens (Human), UniProt P15056, V600E)
Settings: read-out: b-Raf IC-50
[1] = Table 2, AlphaScreen, 3 hours reaction
[2] = AlphaScreen, 60 min pre-incubation, reaction 3 hours at room temperature
[3] = AlphaScreen, 60 min pre-incubation, 3 hours reaction

Sequence of b-Raf (V600E) (P15056 whole entry V600E): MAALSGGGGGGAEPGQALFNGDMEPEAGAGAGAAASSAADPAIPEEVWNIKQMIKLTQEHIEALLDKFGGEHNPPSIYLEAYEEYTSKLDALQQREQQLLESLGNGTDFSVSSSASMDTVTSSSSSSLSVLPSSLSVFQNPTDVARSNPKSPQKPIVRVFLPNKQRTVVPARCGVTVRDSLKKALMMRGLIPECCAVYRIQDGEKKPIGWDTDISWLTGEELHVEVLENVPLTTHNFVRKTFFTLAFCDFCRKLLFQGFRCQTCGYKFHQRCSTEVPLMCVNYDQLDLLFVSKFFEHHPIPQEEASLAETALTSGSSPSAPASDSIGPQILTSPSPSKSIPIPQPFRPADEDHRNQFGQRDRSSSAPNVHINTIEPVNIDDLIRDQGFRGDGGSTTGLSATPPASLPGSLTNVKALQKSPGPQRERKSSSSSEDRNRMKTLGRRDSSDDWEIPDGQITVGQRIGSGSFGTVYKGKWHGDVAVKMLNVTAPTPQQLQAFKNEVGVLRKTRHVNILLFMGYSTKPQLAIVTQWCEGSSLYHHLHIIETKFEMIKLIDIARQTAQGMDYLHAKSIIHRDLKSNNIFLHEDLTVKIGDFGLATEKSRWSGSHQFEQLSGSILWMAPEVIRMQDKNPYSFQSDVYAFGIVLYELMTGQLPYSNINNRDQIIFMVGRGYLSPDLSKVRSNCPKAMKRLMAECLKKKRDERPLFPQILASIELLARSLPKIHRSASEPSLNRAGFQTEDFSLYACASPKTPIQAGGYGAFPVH

Q: How did the pIC50 [1] turn out when `Cc1ncc(NC(=O)c2ccnc(C(C)(C)F)c2)cc1-c1cnc(OC2CCOCC2)c(N2C3CCC2COC3)c1` [Example 279, N-(5′-(3-oxa-8-azabicyclo[3.2.1]octan-8-yl)-2-methyl-6′-((tetrahydro-2H-pyran-4-yl)oxy)-[3,3′-bipyridin]-5-yl)-2-(2-fluoropropan-2-yl)isonicotinamide] was run?
A: Its pIC50 is 5.49.

Q: `Cc1ccc(NC(=O)c2ccnc(C(C)(C)C#N)c2)cc1-c1cc(OC2CCOCC2)nc(N2CCOCC2)c1` [Example 1152, 2-(2-cyanopropan-2-yl)-N-(4-methyl-3-(2-morpholino-6-((tetrahydro-2H-pyran-4-yl)oxy)pyridin-4-yl)phenyl)isonicotinamide] was tested. Which pIC50 [2] did it give?
A: Its pIC50 is 8.90.

Q: How did the pIC50 [1] turn out when `Cc1ncc(NC(=O)c2ccnc(C(C)C)c2)cc1-c1cc(N2CCOCC2)c(=O)n(C)c1` [Example 400, N-(1′,2-dimethyl-5′-morpholino-6′-oxo-1′,6′-dihydro-[3,3′-bipyridin]-5-yl)-2-isopropylisonicotinamide] was run?
A: Its pIC50 is 7.45.

Q: `Cc1ncc(NC(=O)c2ccnc(C(C)(F)F)c2)cc1-c1cc(N2CCO[C@@H](CO)C2)n(C)c(=O)c1` [Example 529, (R)-2-(1,1-difluoroethyl)-N-(6′-(2-(hydroxymethyl)morpholino)-1′,2-dimethyl-2′-oxo-1′,2′-dihydro-[3,4′-bipyridin]-5-yl)isonicotinamide] was tested. Which pIC50 [3] did it give?
A: Its pIC50 is 7.12.

Q: How did the pIC50 [2] turn out when `Cc1ccc(NC(=O)c2ccnc(C(C)(F)F)c2)cc1-c1cc(C2COCCO2)nc(N2CCOCC2)c1` (stereo not drawn) [Example 1145] was run?
A: Its pIC50 is 8.89.

Q: `Cc1ccc(NC(=O)c2cnnc(C3CC3)c2)cc1-c1cc(N2CCOCC2)nc(N2CC(C)(O)C2)c1` [Example 1076, 6-cyclopropyl-N-(3-(2-(3-hydroxy-3-methylazetidin-1-yl)-6-morpholinopyridin-4-yl)-4-methylphenyl)pyridazine-4-carboxamide] was tested. Which pIC50 [2] did it give?
A: The pIC50 was 8.64.

Q: With `Cc1ccc(NC(=O)c2ccnc(C(C)(F)F)c2)cc1-c1cc(N2C3CCC2COC3)cc(=O)n1C` [Example 691, N-(3-(4-(3-oxa-8-azabicyclo[3.2.1]octan-8-yl)-1-methyl-6-oxo-1,6-dihydropyridin-2-yl)-4-methylphenyl)-2-(1,1-difluoroethyl)isonicotinamide] as the molecule, how does the pIC50 [3] read?
A: Its pIC50 is 7.62.

Q: `Cc1ccc(C(=O)Nc2cccc(C(F)F)c2)cc1-c1cc(N2CCOCC2)c(=O)n(C)c1` [Example 430, N-(3-(difluoromethyl)phenyl)-4-methyl-3-(1-methyl-5-morpholino-6-oxo-1,6-dihydropyridin-3-yl)benzamide] was tested. Which pIC50 [1] did it give?
A: The pIC50 was 8.80.

Q: With `CCOc1nnc(-c2cc(NC(=O)c3ccnc(C4CC4)c3)ccc2C)cc1N1CCOCC1` [Example 563, 2-cyclopropyl-N-(3-(6-ethoxy-5-morpholinopyridazin-3-yl)-4-methylphenyl)isonicotinamide] as the molecule, how does the pIC50 [3] read?
A: The pIC50 was 9.22.

Q: How did the pIC50 [3] turn out when `Cc1ccc(NC(=O)c2ccccc2)cc1-c1cc(N2CCOCC2)n(C)c(=O)c1` [Example 473, N-(4-methyl-3-(1-methyl-6-morpholino-2-oxo-1,2-dihydropyridin-4-yl)phenyl)benzamide] was run?
A: The pIC50 was 7.92.

Q: `Cc1ccc(NC(=O)c2cccc(C(F)F)c2)cc1-c1nc2c(c(N3CCOCC3)n1)S(=O)(=O)CC2` [Example 854, 3-(difluoromethyl)-N-(4-methyl-3-(4-morpholino-5,5-dioxido-6,7-dihydrothieno[3,2-d]pyrimidin-2-yl)phenyl)benzamide] was tested. Which pIC50 [2] did it give?
A: The pIC50 was 9.10.

Q: `Cc1ncc(NC(=O)c2cc(C(C)(C)O)ccn2)cc1-c1cnc(OCCO)c(N2CCOCC2)c1` [Example 972, N-(6′-(2-hydroxyethoxy)-2-methyl-5-morpholino-[3,3′-bipyridin]-5-yl)-4-(2-hydroxypropan-2-yl)picolinamide] was tested. Which pIC50 [2] did it give?
A: The pIC50 was 7.43.

Q: `Cc1ccc(NC(=O)c2ccnc(C(C)(C)O)c2)cc1-c1cc(N2CCOCC2)c(S(C)(=O)=O)nn1` [Example 932, 2-(2-hydroxypropan-2-yl)-N-(4-methyl-3-(6-(methylsulfonyl)-5-morpholinopyridazin-3-yl)phenyl)isonicotinamide] was tested. Which pIC50 [2] did it give?
A: Its pIC50 is 8.16.

Q: How did the pIC50 [2] turn out when `CCN1CCN(c2cc(C(=O)Nc3cnc(C)c(-c4cc(N5CCOCC5)nc(N5CC(O)C5)c4)c3)cc(C(F)(F)F)c2)CC1` [Example 1087, 3-(4-ethylpiperazin-1-yl)-N-(2′-(3-hydroxyazetidin-1-yl)-2-methyl-6′-morpholino-[3,4′-bipyridin]-5-yl)-5-(trifluoromethyl)benzamide] was run?
A: Its pIC50 is 7.58.

Q: `Cc1ncc(NC(=O)c2ccnc(C(C)C)c2)cc1-c1cnc(C#N)c(N2CCOCC2)c1` [Example 251, N-(6′-cyano-2-methyl-5′-morpholino-[3,3′-bipyridin]-5-yl)-2-isopropylisonicotinamide] was tested. Which pIC50 [1] did it give?
A: The pIC50 was 8.51.

Q: How did the pIC50 [3] turn out when `CCC(F)(F)c1cc(C(=O)Nc2ccc(C)c(-c3cc(N4CCOCC4)c(OC)nn3)c2)ccn1` [Example 549, 2-(1,1-difluoropropyl)-N-(3-(6-methoxy-5-morpholinopyridazin-3-yl)-4-methylphenyl)isonicotinamide] was run?
A: Its pIC50 is 8.68.

Q: How did the pIC50 [1] turn out when `Cc1ncc(NC(=O)c2ccnc(C(C)(C)C#N)c2)cc1-c1cc(N2CCOCC2)c(=O)n(C)n1` [Example 167, 2-(2-cyanopropan-2-yl)-N-(6-methyl-5-(1-methyl-5-morpholino-6-oxo-1,6-dihydropyridazin-3-yl)pyridin-3-yl)isonicotinamide] was run?
A: The pIC50 was 7.27.

Q: With `Cc1ncc(NC(=O)c2ccnc(C(C)(C)C#N)c2)cc1-c1cc(N2CCOCC2)nc(N[C@@H](C)CO)n1` [Example 744, (S)-2-(2-cyanopropan-2-yl)-N-(5-(2-((1-hydroxypropan-2-yl)amino)-6-morpholinopyrimidin-4-yl)-6-methylpyridin-3-yl)isonicotinamide] as the molecule, how does the pIC50 [3] read?
A: The pIC50 was 7.37.

Q: With `Cc1ncc(NC(=O)c2cccc(C(F)(F)F)c2)cc1-c1cnc(OC2CCCC(O)C2)c(N2CCOCC2)c1` (single isomer, unassigned) [Example 320, N-(6′-((3-hydroxycyclohexyl)oxy)-2-methyl-5′-morpholino-[3,3′-bipyridin]-5-yl)-3-(trifluoromethyl)benzamide] as the molecule, how does the pIC50 [1] read?
A: Its pIC50 is 8.77.

Q: How did the pIC50 [3] turn out when `CCC(F)(F)c1cc(C(=O)Nc2cnc(C)c(-c3cc(N4CCOCC4)c(=O)n(C)n3)c2)ccn1` [Example 679, 2-(1,1-difluoropropyl)-N-(6-methyl-5-(1-methyl-5-morpholino-6-oxo-1,6-dihydropyridazin-3-yl)pyridin-3-yl)isonicotinamide] was run?
A: The pIC50 was 8.09.

Q: `CCOc1ncc(-c2cc(NC(=O)c3cnnc(C(F)(F)F)c3)cnc2C)cc1N1CCOCC1` [Example 259, N-(6′-ethoxy-2-methyl-5′-morpholino-[3,3′-bipyridin]-5-yl)-6-(trifluoromethyl)pyridazine-4-carboxamide] was tested. Which pIC50 [1] did it give?
A: Its pIC50 is 8.51.

Q: How did the pIC50 [1] turn out when `Cc1ncc(N(C)C(=O)c2cccc(C(F)(F)F)c2)cc1-c1cnc(OC2CCOCC2)c(N2CCOCC2)c1` [Example 328, N-methyl-N-(2-methyl-5′-morpholino-6′-((tetrahydro-2H-pyran-4-yl)oxy)-[3,3′-bipyridin]-5-yl)-3-(trifluoromethyl)benzamide] was run?
A: The pIC50 was 7.20.

Q: With `Cc1ccc(NC(=O)c2cccc(C(F)(F)F)c2)cc1-c1cc(N2CC3CC(C2)O3)c(=O)n(C)c1` [Example 464, N-(3-(5-(6-oxa-3-azabicyclo[3.1.1]heptan-3-yl)-1-methyl-6-oxo-1,6-dihydropyridin-3-yl)-4-methylphenyl)-3-(trifluoromethyl)benzamide] as the molecule, how does the pIC50 [3] read?
A: Its pIC50 is 7.77.

Q: How did the pIC50 [2] turn out when `Cc1ncc(NC(=O)c2cccc(C(F)(F)F)c2)cc1-c1nc2c(c(N3CCOCC3)n1)CS(=O)(=O)C2` [Example 886, N-(6-methyl-5-(4-morpholino-6,6-dioxido-5,7-dihydrothieno[3,4-d]pyrimidin-2-yl)pyridin-3-yl)-3-(trifluoromethyl)benzamide] was run?
A: The pIC50 was 8.12.

Q: `Cc1ncc(NC(=O)c2cccc(C(F)(F)F)c2)cc1-c1cc(N2CCOCC2)nc(OC2CNC2)n1` [Example 776, N-(5-(2-(azetidin-3-yloxy)-6-morpholinopyrimidin-4-yl)-6-methylpyridin-3-yl)-3-(trifluoromethyl)benzamide] was tested. Which pIC50 [3] did it give?
A: Its pIC50 is 4.60.

Q: How did the pIC50 [3] turn out when `CCC(F)(F)c1cc(C(=O)Nc2cnc(C)c(-c3cc(N4CCOCC4)c(OC)nn3)c2)ccn1` [Example 607, 2-(1,1-difluoropropyl)-N-(5-(6-methoxy-5-morpholinopyridazin-3-yl)-6-methylpyridin-3-yl)isonicotinamide] was run?
A: Its pIC50 is 8.33.

Q: How did the pIC50 [3] turn out when `Cc1ccc(NC(=O)c2ccnc(C(C)C)c2)cc1-c1cc(N2CCOCC2)c2nccn2n1` [Example 842, 2-isopropyl-N-(4-methyl-3-(8-morpholinoimidazo[1,2-b]pyridazin-6-yl)phenyl)isonicotinamide] was run?
A: The pIC50 was 8.89.

Q: `Cc1ncc(NC(=O)c2ccc(F)c(OC(C)C)c2)cc1-c1cc(N2CCOCC2)c(=O)n(C)c1` [Example 396, N-(1′,2-dimethyl-5′-morpholino-6′-oxo-1′,6′-dihydro-[3,3′-bipyridin]-5-yl)-4-fluoro-3-isopropoxybenzamide] was tested. Which pIC50 [1] did it give?
A: The pIC50 was 7.97.

Q: `Cc1ccc(NC(=O)c2ccnnc2)cc1-c1ccnc(N2CCOCC2)c1` [Example 72, N-(4-methyl-3-(2-morpholinopyridin-4-yl)phenyl)pyridazine-4-carboxamide] was tested. Which pIC50 [1] did it give?
A: The pIC50 was 6.22.

Q: `Cc1ccc(NC(=O)c2cccc(C(F)(F)F)c2)cc1-c1cc(N2CCOCC2)nc(N2CC(O)C2)n1` [Example 765, N-(3-(2-(3-hydroxyazetidin-1-yl)-6-morpholinopyrimidin-4-yl)-4-methylphenyl)-3-(trifluoromethyl)benzamide] was tested. Which pIC50 [3] did it give?
A: Its pIC50 is 9.00.

Q: How did the pIC50 [3] turn out when `Cc1ccc(NC(=O)c2ccnc(C(C)(C)C#N)c2)cc1-c1cc(N2CCOCC2)nc(N2CC(O)C2)n1` [Example 769] was run?
A: Its pIC50 is 7.99.

Q: `Cc1ccc(NC(=O)c2cccc(C(F)(F)F)c2)cc1-c1cc(N2CCOCC2)nc(N2CCOCC2)n1` [Example 10, N-(3-(2,6-dimorpholinopyrimidin-4-yl)-4-methylphenyl)-3-(trifluoromethyl)benzamide] was tested. Which pIC50 did it give?
A: Its pIC50 is 9.52.

Q: `CCNCc1ccc(C(=O)Nc2ccc(C)c(-c3cc(N4CCOCC4)c(OCC)nn3)c2)cc1C(F)(F)F` [Example 575, N-(3-(6-ethoxy-5-morpholinopyridazin-3-yl)-4-methylphenyl)-4-((ethylamino)methyl)-3-(trifluoromethyl)benzamide] was tested. Which pIC50 [3] did it give?
A: The pIC50 was 8.54.
